Test in all cases: NCI tumour cell line growth inhibition, 48 h
The subject of experiment [1] is HOP-62 NSCLC.
The test system of experiment [2] is SNB-19 CNS.
In experiment [3] the test system is NCI-H522 lung.
Experiment [4] has as its system T-47D breast.
The test system of experiment [5] is UO-31 renal.
In experiment [6] the test system is NCI-H460 lung.
In experiment [7] the test system is MOLT-4 leukemia.
Experiment [8] deals with RXF 393 renal.
Experiment [9] has as its system KM12 colon.
Experiment [10] concerns SF-268 CNS.
Experiment [11] relates to RPMI-8226 leukemia.
Experiment [12] concerns OVCAR-3 ovarian.
For experiment [13], the system named is HS 578T breast.
Experiment [14] concerns HL-60(TB) leukemia.
For experiment [15], the system named is OVCAR-4 ovarian.
The subject of experiment [16] is M14 melanoma.
Experiment [17] has as its system MDA-MB-435.

20 molecules from PubChem BioAssay (NCI) can be followed below.

Each structure is given as a SMILES string. Values joined by “and” are separate entries in the source; they are usually repeats but may differ in a detail not shown here. Identical values can stand only once.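 Following 48 hours of exposure in 96-well plates, responses at five concentrations were used to interpolate endpoints linearly. GI50 = concentration required for 50% inhibition of growth. TGI: concentration producing complete growth inhibition.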

For `COc1ccc(S(=O)(=O)O)cc1-n1nc(C(=O)Nc2ccccc2)n[n+]1-c1cc(S(=O)(=O)[O-])ccc1OC`, the TGI in experiment [1], in [2], in experiment [3], in experiment [4], in experiment [5] and in experiment [6] was above 100 µM throughout. Further, the TGI in [7], in experiment [8], in experiment [9], in experiment [10], in experiment [11] and in [12] was above 100 µM in each case. For the same molecule, the TGI in [13], in experiment [14], in experiment [15], in experiment [16] and in experiment [17] was above 100 µM in each case.
`C/C(=N/NC(=S)Nc1ccccc1Cl)c1cccc(/C(C)=N\NC(=S)Nc2ccccc2Cl)n1`: the TGI in [1], in [2], in experiment [3], in experiment [4], in [5] and in experiment [6] was above 100 µM in each case. Besides, the TGI in [7], in experiment [8], in [9], in experiment [10], in experiment [11] and in [12] was above 100 µM in each case. Also, the TGI in experiment [13], in [14], in [15], in experiment [16] and in experiment [17] was above 100 µM throughout.
On to `CCOC(=O)Oc1cc2c(c(OC)c1OC)-c1ccc(SC)c(=O)cc1C(NC(=O)C(F)(F)F)CC2` (stereo unspecified), for which the TGI in experiment [1] was above 100 µM; in [2] it was above 100 µM; in experiment [3], 0.00253 µM; in experiment [4], 81 µM; in experiment [5], 75.6 µM; in experiment [6], 0.753 µM and 2.47 µM. Further, the TGI in [8] is below 0.001 µM; in experiment [11], 14.1 µM; in [13], below 0.001 µM; in experiment [14], 0.0148 µM; in [16], 38.8 µM; in experiment [17], below 0.001 µM. In [4], the GI50 was 21.4 µM.
`COC(=O)C(CCc1ccccc1I)C1=CCC2(CC1)OCCO2` (stereo unspecified): the TGI is above 100 µM in experiment [1]; above 100 µM in experiment [2]; 68.8 µM in experiment [3]; 71.3 µM in experiment [4]; 76.2 µM in [5]; above 100 µM in [6]. The TGI in [7] was above 100 µM; in experiment [8] it was 67.2 µM; in [9], above 100 µM; in experiment [10] it was above 100 µM; in [11], above 100 µM; in [12], above 100 µM. Besides, the TGI in experiment [13] was above 100 µM; in experiment [14], 17.4 µM; in experiment [15], above 100 µM; in experiment [16], above 100 µM; in experiment [17] it was 87.7 µM.
Consider `O=C1O/C(=C(\Br)c2cccc3ccccc23)c2ccccc21`, for which the TGI in experiment [1] is above 100 µM; in [3], 33 µM; in [5] it was above 56.1 µM; in [6], above 73 µM; in [7], 46.7 µM; in experiment [8], above 62.8 µM. The TGI in experiment [9] was above 55.2 µM; in [10] it was above 55.7 µM; in experiment [11], 71.4 µM; in experiment [12], above 57.2 µM; in [14], 47.7 µM; in experiment [15], 30.9 µM. In [16], this molecule had a TGI above 62.8 µM.
Consider `O=C(N=C1SCCN1C(=O)C(C(F)(F)F)C(F)(F)F)C(C(F)(F)F)C(F)(F)F`, for which the TGI in experiment [1], in [2], in experiment [3], in [5], in experiment [6] and in experiment [7] was above 100 µM in each case. Also, the TGI in experiment [8], in experiment [11], in [12], in experiment [14], in experiment [15] and in [16] was above 100 µM throughout. In experiment [17], this molecule had a TGI above 100 µM.
For `O=C(Nc1c[nH]c(=O)[nH]c1=O)C(Cl)Cl`, the TGI in experiment [1], in [2], in experiment [3], in experiment [4], in experiment [5] and in [7] was above 100 µM in each case. Further, the TGI in experiment [8], in experiment [9], in [11], in experiment [12], in experiment [14] and in experiment [15] was above 100 µM each time. In addition, the TGI in experiment [16] and in [17] was above 100 µM each time.
Regarding `Cc1ccnc2[nH]c(-c3cccc(Cl)c3)cc(=O)c12`, the TGI was above 74.8 µM in experiment [1]; above 100 µM in [2]; above 100 µM in experiment [3]; above 100 µM in [4]; above 70.2 µM in [5]; above 100 µM in experiment [6]. Also, the TGI in experiment [7] was above 50 µM; in experiment [8], above 100 µM; in experiment [9], above 47.8 µM; in [10], above 100 µM; in [12] it was 0.162 µM; in experiment [13], above 100 µM. Besides, the TGI in experiment [14] is 0.0611 µM; in experiment [15], above 100 µM; in experiment [16], above 100 µM.
Consider `COC(=O)C(C)(N=Cc1ccccc1)c1ccccc1` (stereo unspecified), for which the TGI in [1], in experiment [2], in experiment [3], in experiment [4], in experiment [5] and in experiment [6] was above 100 µM each time. In addition, the TGI in experiment [7], in experiment [8], in [9], in experiment [10], in experiment [11] and in experiment [12] was above 100 µM each time. In addition, the TGI in experiment [13], in [14], in experiment [15], in [16] and in [17] was above 100 µM each time.
On to `CC1(C)N=C(C(N)=O)c2ncn(CCO)c2N1`, for which the TGI in experiment [1], in experiment [2], in experiment [3], in experiment [4], in [6] and in [8] was above 100 µM throughout. For the same molecule, the TGI in experiment [9], in experiment [10], in experiment [11], in experiment [12], in [13] and in experiment [14] was above 100 µM throughout. Moreover, the TGI in experiment [15], in [16] and in experiment [17] was above 100 µM each time.
For `O=C(/C=C/c1cccc(Br)c1)c1cccs1`, the TGI was 73.8 µM in experiment [1]; 28.3 µM in experiment [2]; 34 µM in experiment [4]; 25.7 µM in [5]; 31.6 µM in [6]; 53.2 µM in [7]. Moreover, the TGI in [9] was 31.6 µM; in experiment [10], 42.1 µM; in [11], 5.42 µM; in experiment [13], 72.3 µM; in [14], 17.7 µM; in experiment [15] it was 31.8 µM. Further, the values for the TGI in [16] and in experiment [17] were 51.1 µM and 25.5 µM, respectively.
In the case of `COC(=O)/C=C(\C)C(=O)N(C)c1ccccc1I`, the TGI in [1], in experiment [2], in [4], in experiment [5], in experiment [6] and in [7] was above 100 µM throughout. Moreover, the TGI in [8], in experiment [9], in experiment [10], in experiment [11], in experiment [12] and in experiment [15] was above 100 µM each time. Moreover, the TGI in experiment [16] and in experiment [17] was above 100 µM each time.
With `CCOc1ccc(/C=C(\Cl)c2ccc(OC)c(OC)c2)cc1`, the TGI in [1] was above 100 µM; in experiment [2], above 100 µM; in experiment [3] it was 74.1 µM; in experiment [5] it was above 100 µM; in [7], above 100 µM; in experiment [8] it was 65.5 µM. Further, the TGI in experiment [10] is above 100 µM; in [11] it was above 100 µM; in experiment [14] it was above 100 µM; in experiment [15] it was above 100 µM; in experiment [16] it was 89.6 µM.
`CCCCCC(=O)c1ccc2[nH]c3c(C)cc([N+](=O)[O-])c(C)c3c2c1`: the TGI in experiment [1], in [2], in experiment [3], in experiment [5], in [6] and in experiment [7] was above 100 µM each time. Also, the TGI in [9], in [10], in experiment [11], in experiment [12], in [14] and in experiment [15] was above 100 µM in each case. The same molecule yielded a TGI in experiment [16] above 100 µM.
As for `CC(C)SC(C)(NC(=O)C1C(C)(C)CCC1(C)C)C(=O)O` (stereo unspecified), the TGI in [1], in experiment [2], in experiment [4], in experiment [5], in [6] and in [7] was above 100 µM in each case. For the same molecule, the TGI in experiment [10], in experiment [11], in experiment [13], in experiment [14], in [16] and in experiment [17] was above 100 µM in each case.
As to `C=C1C(=O)OC2(C)C3CCC(C3)C12` (stereo unspecified), the TGI in [1] is above 100 µM; in experiment [2], above 100 µM; in [3], 85.8 µM; in experiment [5] it was above 100 µM; in experiment [6] it was above 100 µM; in experiment [7], above 100 µM. Moreover, the TGI in experiment [9] is above 100 µM; in [10], above 100 µM; in [11], above 100 µM; in experiment [12], above 100 µM; in experiment [14] it was 84.6 µM; in [15], above 100 µM. This molecule also returned a TGI in experiment [16] of 95.7 µM.
As to `O=C1CSc2nc3ccccc3n2/C=N\N1`, the TGI in [2], in [3], in experiment [5], in [6], in experiment [7] and in [8] was above 100 µM in each case. In addition, the TGI in experiment [9], in experiment [10], in experiment [11], in experiment [15], in [16] and in [17] was above 100 µM throughout.
For the molecule `O=C(Nc1cccc(C(F)(F)F)c1)O/N=C(/Cl)CCl`, the TGI in experiment [1] was above 100 µM; in experiment [2], above 100 µM; in experiment [4] it was above 100 µM; in [5], above 100 µM; in [6], above 100 µM; in experiment [7], 79.6 µM. Moreover, the TGI in experiment [9] is above 100 µM; in experiment [10], above 100 µM; in [11], 75.1 µM; in [12] it was above 100 µM; in [13], above 100 µM; in [14] it was 38.7 µM. Also, the TGI in experiment [15] and in [16] was above 100 µM each time.
Take `Cc1nc2c(n1C(C)(C)C)C(=O)c1ccccc1C2=O`: the TGI in experiment [1], in [2], in experiment [3], in [5], in experiment [6] and in experiment [7] was above 100 µM in each case. The TGI in experiment [8], in experiment [9], in [10], in [12], in experiment [14] and in experiment [15] was above 100 µM throughout. Further, the TGI in experiment [16] was above 100 µM.
Consider `C=CCOCn1cnc2c(N)ncnc21`, for which the TGI in experiment [1], in experiment [2], in experiment [4], in experiment [5], in [6] and in [7] was above 100 µM throughout. Besides, the TGI in experiment [9], in experiment [10], in experiment [11], in [13], in experiment [14] and in experiment [15] was above 100 µM throughout. Moreover, the TGI in experiment [16] and in experiment [17] was above 100 µM each time.
